From paper PMC7866087, “Evaluation of Computationally Designed Peptides against TWEAK, a Cytokine of the Tumour Necrosis Factor Ligand Family” (International Journal of Molecular Sciences, 2021)
Several values for one entry are separate records, joined by “and”; a condition that tells them apart may be missing. Equal entries are not always repeated.

Tested on: TWEAK-Fn14 signalling pathway, BRV5 cells
Assay: Cell-based screening of individual peptides, gene expression microarray in TWEAK-stimulated BRV5 cells
Design: species or system human
Conditions: 6 h; for regulation of probe genes by individual peptides: BRV5 + TWEAK 25 ng/mL, peptides 450 µM; for BIRC2 mRNA expression (normalized to NARS2) / HSP90B1 mRNA expression (normalized to NARS2) / IL6 mRNA expression (normalized to NARS2) / JUN mRNA expression (normalized to NARS2) / MAP4K4 mRNA expression (normalized to NARS2) / MAPK14 mRNA expression (normalized to NARS2) / NFKB2 mRNA expression (normalized to NARS2) / TNFRSF12A mRNA expression (normalized to NARS2) / TRAF2 mRNA expression (normalized to NARS2) / BIRC2 expression Z-Score / HSP90B1 expression Z-Score / IL6 expression Z-Score / JUN expression Z-Score / MAP4K4 expression Z-Score / MAPK14 expression Z-Score / NFKB2 expression Z-Score / TNFRSF12A expression Z-Score / TRAF2 expression Z-Score: individual peptides, BRV5 + TWEAK; for BIRC2 mRNA expression (normalized to NARS2) / HSP90B1 mRNA expression (normalized to NARS2) / IL6 mRNA expression (normalized to NARS2) / JUN mRNA expression (normalized to NARS2) / MAP4K4 mRNA expression (normalized to NARS2) / MAPK14 mRNA expression (normalized to NARS2) / NFKB2 mRNA expression (normalized to NARS2) / TNFRSF12A mRNA expression (normalized to NARS2) / TRAF2 mRNA expression (normalized to NARS2): 450 µM; for BIRC2 expression Z-Score / HSP90B1 expression Z-Score / IL6 expression Z-Score / JUN expression Z-Score / MAP4K4 expression Z-Score / MAPK14 expression Z-Score / NFKB2 expression Z-Score / TNFRSF12A expression Z-Score / TRAF2 expression Z-Score: normalized to NARS2
Text: Pool 1 and 5 were therefore deconstructed to assess the effect of individual peptides and their activity on same cell-based screening. Pools 1 and 5 were composed of peptides 45, 46, 42, 3, 49, 11, and 13; and of peptides 1, 9, 30, 35, 41, 43, 7, and 14, respectively. As before, and shown in Figure 4B, the level of expression of probe genes on TWEAK-stimulated (T) BRV5 cells is overall higher than on non-stimulated (NT) one. […] The structural model of peptides 43, 30, 35 and 49 bound to TWEAK can be seen in Figure 5 and Supplementary Materials Figures S4–S6, respectively.
Three different cell lines were used in this study: BRV5, MDA-MB 435 (435-P), and HT29. The BRV5 is a highly metastatic brain cell line, obtained in one of our laboratories by primary culture from a brain of a nude mouse inoculated with human 435-Br1 brain metastatic cells, as previously described and used as a model to test the peptides in cell cultures. […] The triple negative 435-P cell line is a useful human breast cancer model that expresses both epithelial and melanocytic markers, and was included as the parental cell from which 435-Br1 metastatic variant was initially originated (both cell lines kindly provided by Dr Fabra at IDIBELL Institute, Hospitalet de Llobregat, Spain). Finally, HT29 human colon carcinoma cells obtained from the European Type Culture Collection (ECACC 91072201) were used as a positive control of TWEAK dependent Fn14 over-expressing cells to evaluate TWEAK-Fn14 axis of brain metastatic variants.
Appropriate cell culture conditions were established as the controls needed in the expression of genes with and without peptides and with and without TWEAK activation, both as pools and individually (see Supplementary Materials Figure S2). The protocol started with the seeding of 125,000 cells/well in 500 µL of culture media supplemented with 10% fetal bovine serum (CM+FBS10%) in 24-well dishes for 24 h before removing FBS (CM-FBS). After overnight starvation in CM-FBS culture, different peptide treatment conditions (at final concentration of 450 µM) were established in the presence or absence of TWEAK (25 ng/mL final concentration) (Peprotech EC, Ltd., London, UK). Some cells were treated with peptides at a single, unique, initial dose (time 0) while other were treated with repeated doses to account for the effect cell-culture degradation. These include a repeated treatment every hour (i.e., […]), every two hours (time 0, 2, and 4) and every three hours (time 0 and 3)—see Supplementary Materials Figure S2 for diagrammatic depiction. At time 6 (after six hours) cells were lysed and RNA extracted for transcriptomic analyses (see next). Cell were culture for six hours as this was the time needed to achieve the highest upregulation of the TWEAK-Fn14 axis upon TWEAK treatment as shown in previous time-course RT-PCR experiments (see Figure 2).
RNA from cells was extracted 6 h after treatments by direct lysis on the well. The RNeasy Micro kit (Qiagen, Hilden, Germany) was used to isolate total RNA from cell lysate following manufacturer’s protocols including an additional step of digestion with DNase I (Qiagen, Hilden, Germany). Total RNA concentration was measured in a NanoDrop 1000 spectrophotometer (Thermo Scientific, Waltham, MA, USA). The RNA extracted from treated and untreated cells (see above) was used as a proxy for gene expression.
The quantitative RT-PCR was performed using Fluidigm Dynamic Array FlexSix array with the specific primers for gene expression (Delta Genes Assays, Wet lab tested on Dynamic Array IFC) designed to RefSeq for detection by pPCR EvaGreen assay (Dynamic Array FlexSix, Fluidigm Corporation). Each Flex Six IFC has a total of six independent partitions. Each partition has a 12 × 12 format (12 assay inlets and 12 sample inlets) and will be run independently as a separate experimental run. […]

Substance | regulation of probe genes by individual peptides | BIRC2 mRNA expression (normalized to NARS2) (mean of replicate columns) | HSP90B1 mRNA expression (normalized to NARS2) (mean of replicate columns) | IL6 mRNA expression (normalized to NARS2) (mean of replicate columns) | JUN mRNA expression (normalized to NARS2) (mean of replicate columns) | MAP4K4 mRNA expression (normalized to NARS2) (mean of replicate columns) | MAPK14 mRNA expression (normalized to NARS2) (mean of replicate columns) | NFKB2 mRNA expression (normalized to NARS2) (mean of replicate columns) | TNFRSF12A mRNA expression (normalized to NARS2) (mean of replicate columns) | TRAF2 mRNA expression (normalized to NARS2) (mean of replicate columns) | BIRC2 mRNA expression (normalized to NARS2) (replicate column 1) | HSP90B1 mRNA expression (normalized to NARS2) (replicate column 1) | IL6 mRNA expression (normalized to NARS2) (replicate column 1) | JUN mRNA expression (normalized to NARS2) (replicate column 1) | MAP4K4 mRNA expression (normalized to NARS2) (replicate column 1) | MAPK14 mRNA expression (normalized to NARS2) (replicate column 1) | NFKB2 mRNA expression (normalized to NARS2) (replicate column 1) | TNFRSF12A mRNA expression (normalized to NARS2) (replicate column 1) | TRAF2 mRNA expression (normalized to NARS2) (replicate column 1) | BIRC2 mRNA expression (normalized to NARS2) (replicate column 2) | other results
1: GNGTDDNSGTSY [Peptide 1] | lack of effect against the probe genes | 0.5966 | 1.937 | 0.002365 | 0.07082 | 0.1707 | 0.1634 | 0.03922 | 0.01975 | 0.011 | 0.538 | 1.874 | 0.002307 | 0.06535 | 0.1695 | 0.1671 | 0.04144 | 0.01871 | 0.009637 | 0.6552 | HSP90B1 mRNA expression (normalized to NARS2) (replicate column 2): 2.001; IL6 mRNA expression (normalized to NARS2) (replicate column 2): 0.002424; JUN mRNA expression (normalized to NARS2) (replicate column 2): 0.07629; MAP4K4 mRNA expression (normalized to NARS2) (replicate column 2): 0.1719; MAPK14 mRNA expression (normalized to NARS2) (replicate column 2): 0.1597; NFKB2 mRNA expression (normalized to NARS2) (replicate column 2): 0.037; TNFRSF12A mRNA expression (normalized to NARS2) (replicate column 2): 0.0208; TRAF2 mRNA expression (normalized to NARS2) (replicate column 2): 0.01237; BIRC2 expression Z-Score (listed as P1): 0.2639; HSP90B1 expression Z-Score (listed as P1): -0.5389; IL6 expression Z-Score (listed as P1): 0.4124; JUN expression Z-Score (listed as P1): -0.3055; MAP4K4 expression Z-Score (listed as P1): -0.3569; MAPK14 expression Z-Score (listed as P1): -0.6461; NFKB2 expression Z-Score (listed as P1): -0.1191; TNFRSF12A expression Z-Score (listed as P1): -0.0875 and -0.08748; TRAF2 expression Z-Score (listed as P1): -0.4104
42: YNGHVKDD [Peptide 42] | lack of effect against the probe genes | 0.5389 | 2.753 | 0.00216 | 0.08082 | 0.2296 | 0.2228 | 0.05504 | 0.02325 | 0.01684 | 0.5109 | 2.683 | 0.001723 | 0.07685 | 0.2119 | 0.2124 | 0.04902 | 0.02357 | 0.01769 | 0.5668 | HSP90B1 mRNA expression (normalized to NARS2) (replicate column 2): 2.8231; IL6 mRNA expression (normalized to NARS2) (replicate column 2): 0.002596; JUN mRNA expression (normalized to NARS2) (replicate column 2): 0.08479; MAP4K4 mRNA expression (normalized to NARS2) (replicate column 2): 0.2473; MAPK14 mRNA expression (normalized to NARS2) (replicate column 2): 0.2332; NFKB2 mRNA expression (normalized to NARS2) (replicate column 2): 0.06106; TNFRSF12A mRNA expression (normalized to NARS2) (replicate column 2): 0.02293; TRAF2 mRNA expression (normalized to NARS2) (replicate column 2): 0.01599; BIRC2 expression Z-Score (listed as P42): -0.1362; HSP90B1 expression Z-Score (listed as P42): 0.9131; IL6 expression Z-Score (listed as P42): 0.2346; JUN expression Z-Score (listed as P42): -0.1905; MAP4K4 expression Z-Score (listed as P42): 1.1128 and 1.113; MAPK14 expression Z-Score (listed as P42): 0.3913; NFKB2 expression Z-Score (listed as P42): 1.3869 and 1.387; TNFRSF12A expression Z-Score (listed as P42): 0.3098; TRAF2 expression Z-Score (listed as P42): -0.1276
SWYDHMAGDSSY [Peptide 35] | lowest overall expression across all genes | 0.4507 | 1.621 | 0.002118 | 0.05317 | 0.1168 | 0.1368 | 0.02465 | 0.01131 | 0.008162 | 0.4318 | 1.578 | 0.00212 | 0.0528 | 0.1079 | 0.1402 | 0.02663 | 0.01132 | 0.007774 | 0.4696 | HSP90B1 mRNA expression (normalized to NARS2) (replicate column 2): 1.664; IL6 mRNA expression (normalized to NARS2) (replicate column 2): 0.002116; JUN mRNA expression (normalized to NARS2) (replicate column 2): 0.05355; MAP4K4 mRNA expression (normalized to NARS2) (replicate column 2): 0.1258; MAPK14 mRNA expression (normalized to NARS2) (replicate column 2): 0.1335; NFKB2 mRNA expression (normalized to NARS2) (replicate column 2): 0.02267; TNFRSF12A mRNA expression (normalized to NARS2) (replicate column 2): 0.01129; TRAF2 mRNA expression (normalized to NARS2) (replicate column 2): 0.008551; BIRC2 expression Z-Score (listed as P35): -0.7468; HSP90B1 expression Z-Score (listed as P35): -1.1014 and -1.101; IL6 expression Z-Score (listed as P35): 0.1984; JUN expression Z-Score (listed as P35): -0.5085; MAP4K4 expression Z-Score (listed as P35): -1.7018 and -1.702; MAPK14 expression Z-Score (listed as P35): -1.1107 and -1.111; NFKB2 expression Z-Score (listed as P35): -1.5063 and -1.506; TNFRSF12A expression Z-Score (listed as P35): -1.0476 and -1.048; TRAF2 expression Z-Score (listed as P35): -0.5479
